Patent publication US20040242896A1, “Azole compounds as anti-fungal agents” (priority 2001, published 2004)
Converted amounts (≈) assume the structure as drawn. Where two headings read alike, the source gives them in different places.

Experiments:
[1] = test system: Candida parapsilosis 22019 (QC); assay: MIC determination (NCCLS M27A), Candida parapsilosis 22019 (QC); assay type: cell-based
Candida krusei 6258 (QC) = assay: MIC determination (NCCLS M27A), Candida krusei 6258 (QC); assay type: cell-based
[2] = test system: Paecilomyces variotti 22319 QC); assay: MIC determination (NCCLS M38P), Paecilomyces variotti 22319 (QC); assay type: cell-based
Candida albicans 1122 = assay: MIC determination (NCCLS M27A), Candida albicans 1122; assay type: cell-based
Candida albicans Y-01-19 = assay: MIC determination (NCCLS M27A), Candida albicans Y-01-19; assay type: cell-based
Candida albicans1162 = assay: MIC determination (NCCLS M27A), Candida albicans 1162; assay type: cell-based
Candida tropicalis 750 = assay: MIC determination (NCCLS M27A), Candida tropicalis 750; assay type: cell-based
Candida krusei 766.1 = assay: MIC determination (NCCLS M27A), Candida krusei 766.1; assay type: cell-based
Candida glabrata 90030 = assay: MIC determination (NCCLS M27A), Candida glabrata 90030; assay type: cell-based
Histoplasma capsulatum = assay: microbe, parasite or virus in culture; assay type: cell-based
[3] = test system: Cryptococcus neoformans I; assay: MIC determination (NCCLS M27A), Cryptococcus neoformans I; assay type: cell-based
[4] = test system: Cryptococcus neoformans M 106; assay: MIC determination (NCCLS M27A), Cryptococcus neoformans M 106; assay type: cell-based
[5] = test system: Aspergillus fumigatus 1008; assay: MIC determination (NCCLS M38P), Aspergillus fumigatus 1008; assay type: cell-based
[6] = test system: Aspergillus fumigatus Si-I; assay: MIC determination (NCCLS M38P), Aspergillus fumigatus Si-I; assay type: cell-based
[7] = test system: isolates of Aspergillus species; conditions: background statement; cited from earlier work
[8] = target: lanosterol 14α-de-methylase; conditions: the target enzyme in the fungus, background statement; cited from earlier work
[9] = Candida albicans Y-01-19, RPMI 1640, MOPS pH 7
[10] = Candida albicans1162, RPMI 1640, MOPS pH 7
[11] = Candida krusei 766.1, RPMI 1640, MOPS pH 7
[12] = Cryptococcus neoformans M 106, RPMI 1640, MOPS pH 7
[13] = Aspergillus fumigatus 1008, RPMI 1640, MOPS pH 7
[14] = Aspergillus fumigatus Si-I, RPMI 1640, MOPS pH 7
[15] = RPMI 1640, MOPS pH 7, read-out: MIC
[16] = Pichia kudriavzevii, RPMI 1640, MOPS pH 7, read-out: MIC
[17] = Nakaseomyces glabratus, RPMI 1640, MOPS pH 7, read-out: MIC

C[C@@H]1[C@H](O)[C@@H](C)/C=C/C=C/C=C/C=C/C=C/C=C/C=C/[C@H](O[C@@H]2O[C@H](C)[C@@H](O)[C@H](N)[C@@H]2O)C[C@@H]2O[C@](O)(C[C@@H](O)C[C@@H](O)[C@H](O)CC[C@@H](O)C[C@@H](O)CC(=O)O[C@H]1C)C[C@H](O)[C@H]2C(=O)O [Amphotericin B]
MIC ([1]; RPMI 1640, MOPS pH 7): 0.25 µg/mL (≈ 0.271 µM) | MIC (Candida krusei 6258 (QC); RPMI 1640, MOPS pH 7): 0.25 µg/mL (≈ 0.271 µM) | MIC ([2]; RPMI 1640, MOPS pH 7): 0.06 µg/mL (≈ 0.0649 µM) | MIC (Candida albicans 1122; RPMI 1640, MOPS pH 7): 0.125 µg/mL (≈ 0.135 µM) | MIC (Candida albicans Y-01-19; [9]): 0.125 µg/mL (≈ 0.135 µM) | MIC (Candida albicans1162; [10]): 0.06 µg/mL (≈ 0.0649 µM) | MIC (Candida tropicalis 750; RPMI 1640, MOPS pH 7): 0.125 µg/mL (≈ 0.135 µM) | MIC (Candida krusei 766.1; [11]): 0.25 µg/mL (≈ 0.271 µM) | MIC (Candida glabrata 90030; RPMI 1640, MOPS pH 7): 0.125 µg/mL (≈ 0.135 µM) | MIC (Histoplasma capsulatum; RPMI 1640, MOPS pH 7): 0.25 µg/mL (≈ 0.271 µM) | MIC ([3]; RPMI 1640, MOPS pH 7): 0.06 µg/mL (≈ 0.0649 µM) | MIC [4, 12]: 0.125 µg/mL (≈ 0.135 µM) | MIC [5, 13]: 0.125 µg/mL (≈ 0.135 µM) | MIC [6, 14]: 0.125 µg/mL (≈ 0.135 µM)

C[C@@H](n1ncn(-c2ccc(OCc3ccccc3)cc2)c1=S)[C@](O)(Cn1cncn1)c1ccc(F)cc1F [Compound No. 2, 2-[(1R,2R)-2 (2,4-Difluorophenyl)-2-hydroxy-1-methyl-3-(1H-1,2,4-triazol-1-yl)propyl]-4-(4-benzyloxyphenyl)-3-(2H, 4H)-1,2,4-thiotriazolone]
MIC ([1]; RPMI 1640, MOPS pH 7): 0.002 µg/mL (≈ 0.00374 µM) | MIC (Candida krusei 6258 (QC); RPMI 1640, MOPS pH 7): 0.125 µg/mL (≈ 0.234 µM) | MIC ([2]; RPMI 1640, MOPS pH 7): 0.06 µg/mL (≈ 0.112 µM) | MIC (Candida albicans Y-01-19; [9]): 0.03 µg/mL (≈ 0.0561 µM) | MIC (Candida tropicalis 750; RPMI 1640, MOPS pH 7): 0.002 µg/mL (≈ 0.00374 µM) | MIC (Candida krusei 766.1; [11]): 0.125 µg/mL (≈ 0.234 µM) | MIC (Candida glabrata 90030; RPMI 1640, MOPS pH 7): 0.125 µg/mL (≈ 0.234 µM) | MIC (Histoplasma capsulatum; RPMI 1640, MOPS pH 7): 0.03 µg/mL (≈ 0.0561 µM) | MIC ([3]; RPMI 1640, MOPS pH 7): 0.00025 µg/mL (≈ 0.000468 µM) | MIC [4, 12]: 0.00025 µg/mL (≈ 0.000468 µM) | MIC [5, 13]: 0.125 µg/mL (≈ 0.234 µM) | MIC [6, 14]: 0.016 µg/mL (≈ 0.0299 µM)

OC(Cn1cncn1)(Cn1cncn1)c1ccc(F)cc1F [Fluconazole]
MIC [1, 15]: 2 µg/mL (≈ 6.53 µM) | MIC (Candida krusei 6258 (QC); [16]): 32 µg/mL (≈ 104 µM) | MIC [2, 15]: 2 µg/mL (≈ 6.53 µM) | MIC (Candida albicans 1122; [15]): 0.5 µg/mL (≈ 1.63 µM) | MIC (Candida albicans Y-01-19; Y0119, Candida albicans Y-01-19, RPMI 1640, MOPS pH 7, read-out: MIC): 8 µg/mL (≈ 26.1 µM) | MIC (Candida albicans1162; Candida, ALBICANS1162, pH 7): > 128 µg/mL | MIC (Candida tropicalis 750; [15]): 0.25 µg/mL (≈ 0.816 µM) | MIC (Candida krusei 766.1; Pichia kudriavzevii, 766.1, pH 7): 128 µg/mL (≈ 418 µM) | MIC (Candida glabrata 90030; [17]): 64 µg/mL (≈ 209 µM) | MIC (Histoplasma capsulatum; pH 7): 2 µg/mL (≈ 6.53 µM) | MIC [3, 15]: 0.5 µg/mL (≈ 1.63 µM) | MIC ([4]; M106, Cryptococcus neoformans M 106, RPMI 1640, MOPS pH 7, read-out: MIC): 2 µg/mL (≈ 6.53 µM) | MIC ([5]; Aspergillus fumigatus, 1008, pH 7): > 128 µg/mL | MIC ([6]; Aspergillus fumigatus, pH 7): > 128 µg/mL | minimum inhibitory concentration (MIC) values [7]: 400 µg/mL (≈ 1310 µM) | IC50 [8]: 4.8 µM

CCC(C)n1ncn(-c2ccc(N3CCN(c4ccc(OCC5COC(Cn6cncn6)(c6ccc(Cl)cc6Cl)O5)cc4)CC3)cc2)c1=O (stereo not shown) [Itraconazole]
MIC [1, 15]: 0.06 µg/mL (≈ 0.085 µM) | MIC (Candida krusei 6258 (QC); [16]): 0.5 µg/mL (≈ 0.709 µM) | MIC [2, 15]: 0.03 µg/mL (≈ 0.0425 µM) | MIC (Candida albicans 1122; [15]): 0.03 µg/mL (≈ 0.0425 µM) | MIC (Candida albicans Y-01-19; Candida albicans, Y0119, pH 7): 0.125 µg/mL (≈ 0.177 µM) | MIC (Candida albicans1162; Candida albicans1162, RPMI 1640, MOPS pH 7, read-out: MIC): 32 µg/mL (≈ 45.3 µM) | MIC (Candida tropicalis 750; [15]): 0.03 µg/mL (≈ 0.0425 µM) | MIC (Candida krusei 766.1; Pichia kudriavzevii, Candida krusei 766.1, RPMI 1640, MOPS pH 7, read-out: MIC): 0.25 µg/mL (≈ 0.354 µM) | MIC (Candida glabrata 90030; [17]): 2 µg/mL (≈ 2.83 µM) | MIC (Histoplasma capsulatum; pH 7): 0.25 µg/mL (≈ 0.354 µM) | MIC [3, 15]: 0.016 µg/mL (≈ 0.0227 µM) | MIC ([4]; Cryptococcus neoformans, M106, pH 7): 0.125 µg/mL (≈ 0.177 µM) | MIC ([5]; Aspergillus fumigatus 1008, RPMI 1640, MOPS pH 7, read-out: MIC): 0.25 µg/mL (≈ 0.354 µM) | MIC ([6]; Aspergillus fumigatus Si-I, RPMI 1640, MOPS pH 7, read-out: MIC): 0.25 µg/mL (≈ 0.354 µM)

C[C@@H](n1ncn(-c2ccc(OCc3ccc(Cl)cc3Cl)cc2)c1=S)[C@](O)(Cn1cncn1)c1ccc(F)cc1F [compound 1, 2-[(1R,2R)-2 (2,4-Difluorophenyl)-2-hydroxy-1-methyl-3-(1H-1,2,4-triazol-1-yl)propyl]-4-[4-(2,4-dichlorobenzyloxy)phenyl]-3-(2H, 4H)-1,2,4-thiotriazolone]
MIC ([1]; RPMI 1640, MOPS pH 7): <0.125 µg/mL | MIC (Candida krusei 6258 (QC); RPMI 1640, MOPS pH 7): <0.125 µg/mL | MIC ([2]; RPMI 1640, MOPS pH 7): <0.125 µg/mL | MIC (Candida albicans 1122; RPMI 1640, MOPS pH 7): <0.125 µg/mL | MIC (Candida albicans Y-01-19; [9]): ≦0.125 μg/ml | MIC (Candida albicans1162; [10]): ≧64 μg/ml | MIC (Candida tropicalis 750; RPMI 1640, MOPS pH 7): <0.125 µg/mL | MIC (Candida krusei 766.1; [11]): 0.5 µg/mL (≈ 0.829 µM) | MIC (Candida glabrata 90030; RPMI 1640, MOPS pH 7): 32 µg/mL (≈ 53 µM) | MIC (Histoplasma capsulatum; RPMI 1640, MOPS pH 7): 0.5 µg/mL (≈ 0.829 µM) | MIC ([3]; RPMI 1640, MOPS pH 7): <0.03 µg/mL | MIC [4, 12]: <0.03 µg/mL | MIC [5, 13]: <0.125 µg/mL | MIC [6, 14]: <0.125 µg/mL
